Key:
A549 cells = assay: Growth inhibition of siRNA-transfected A549 cells, SYBR Green I DNA content; type: cell-based, human; settings: A549 cells, 10 nM siRNA, DNA content 96 hours after transfection, transporter gene targets
How it was run: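 Growth read-out: cellular DNA quantified with SYBR Green I (485/535 nm) 96 h after transfection, cells frozen, thawed and lysed in PBS/1% Triton X-100, pH 7. Cells (A549, 5×10^3 cells/cm^2) received 10 nM siRNA by RNAiMAX; non-specific siRNA served as control; triplicate wells averaged.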

[1] = system: target transcript mRNA in A549 cells; assay: Level of mRNA of target transcript in A549 cells by quantitative RT-PCR (Tables 12 and 13); type: cell-based, human; settings: 24 h post-transfection; for mRNA knockdown of transporter gene target transcript, 0.1 nM: 0.1 nM siRNA; for mRNA knockdown of transporter gene target transcript, 1 nM: 1 nM siRNA
How it was run: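 Target mRNA was measured by SYBR Green quantitative RT-PCR using random-primed cDNA, normalised to HPRT and Lamin. Samples came from A549 cells 24 h post-transfection with 0.1, 1.0 or 10 nM siRNA.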

SEQ ID NO: 4903: siRNA targeting SLC7A5 (LAT1) (chain 1 ACGAAATTCAAGTAATTCCATCCTC; chain 2 ACGAAAUUCAAGUAAUUCCAUCCUC; Antisense strand given in DNA and RNA notation, chemistry not given here; one strand in two spellings)
Growth Inhibition in A549 cells by 10 nM siRNA (A549 cells): − (no growth inhibition) | mRNA knockdown of transporter gene target transcript, 0.1 nM [1]: ++ (70-90% mRNA knockdown) | mRNA knockdown of transporter gene target transcript, 1 nM [1]: +++ (>90% mRNA knockdown)

SEQ ID NO: 4904: siRNA targeting SLC7A11 (xCT) (chain 1 AGATAAATCAGCCCAGCAACTGCCA; chain 2 AGAUAAAUCAGCCCAGCAACUGCCA; Antisense strand given in DNA and RNA notation, chemistry not given here; one strand in two spellings)
Growth Inhibition in A549 cells by 10 nM siRNA (A549 cells): − (no growth inhibition) | mRNA knockdown of transporter gene target transcript, 0.1 nM [1]: + (50-70% mRNA knockdown) | mRNA knockdown of transporter gene target transcript, 1 nM [1]: ++ (70-90% mRNA knockdown)

SEQ ID NO: 4905: siRNA targeting SLC7A11 (xCT) (chain 1 ATTATGAGGAGTTCCACCCAGACTC; chain 2 AUUAUGAGGAGUUCCACCCAGACUC; Antisense strand given in DNA and RNA notation, chemistry not given here; one strand in two spellings)
Growth Inhibition in A549 cells by 10 nM siRNA (A549 cells): ++ (inhibits by at least 75%) | mRNA knockdown of transporter gene target transcript, 0.1 nM [1]: ++ (70-90% mRNA knockdown) | mRNA knockdown of transporter gene target transcript, 1 nM [1]: ++ (70-90% mRNA knockdown)

SEQ ID NO: 4906: siRNA targeting SLC7A11 (xCT) (chain 1 TAATGAGAAATTTCCCAGTAGCCGC; chain 2 UAAUGAGAAAUUUCCCAGUAGCCGC; Antisense strand given in DNA and RNA notation, chemistry not given here; one strand in two spellings)
Growth Inhibition in A549 cells by 10 nM siRNA (A549 cells): − (no growth inhibition) | mRNA knockdown of transporter gene target transcript, 0.1 nM [1]: + (50-70% mRNA knockdown) | mRNA knockdown of transporter gene target transcript, 1 nM [1]: ++ (70-90% mRNA knockdown)

SEQ ID NO: 4907: siRNA targeting SLC3A2 (4F2hc) (chain 1 TTTGTTGGATTCGAGTAGGCTCAGG; chain 2 UUUGUUGGAUUCGAGUAGGCUCAGG; Antisense strand given in DNA and RNA notation, chemistry not given here; one strand in two spellings)
Growth Inhibition in A549 cells by 10 nM siRNA (A549 cells): − (no growth inhibition) | mRNA knockdown of transporter gene target transcript, 0.1 nM [1]: − (<50% mRNA knockdown) | mRNA knockdown of transporter gene target transcript, 1 nM [1]: − (<50% mRNA knockdown)

SEQ ID NO: 4908: siRNA targeting SLC3A2 (4F2hc) (chain 1 AAGTTGAGCCGGCAAGAAGGAAGTC; chain 2 AAGUUGAGCCGGCAAGAAGGAAGUC; Antisense strand given in DNA and RNA notation, chemistry not given here; one strand in two spellings)
Growth Inhibition in A549 cells by 10 nM siRNA (A549 cells): ++ (inhibits by at least 75%) | mRNA knockdown of transporter gene target transcript, 0.1 nM [1]: − (<50% mRNA knockdown) | mRNA knockdown of transporter gene target transcript, 1 nM [1]: + (50-70% mRNA knockdown)

SEQ ID NO: 4909: siRNA targeting SLC3A2 (4F2hc) (chain 1 AAGAGCATCAGCTGGTAGAGTCGGA; chain 2 AAGAGCAUCAGCUGGUAGAGUCGGA; Antisense strand given in DNA and RNA notation, chemistry not given here; one strand in two spellings)
Growth Inhibition in A549 cells by 10 nM siRNA (A549 cells): − (no growth inhibition) | mRNA knockdown of transporter gene target transcript, 0.1 nM [1]: + (50-70% mRNA knockdown) | mRNA knockdown of transporter gene target transcript, 1 nM [1]: ++ (70-90% mRNA knockdown)

SEQ ID NO: 4910: siRNA targeting SLC5A6 (SMVT1) (chain 1 AAGGCAAGGCCTCTGGAAAGCATGA; chain 2 AAGGCAAGGCCUCUGGAAAGCAUGA; Antisense strand given in DNA and RNA notation, chemistry not given here; one strand in two spellings)
Growth Inhibition in A549 cells by 10 nM siRNA (A549 cells): − (no growth inhibition) | mRNA knockdown of transporter gene target transcript, 0.1 nM [1]: − (<50% mRNA knockdown) | mRNA knockdown of transporter gene target transcript, 1 nM [1]: + (50-70% mRNA knockdown)

SEQ ID NO: 4911: siRNA targeting SLC5A6 (SMVT1) (chain 1 AATGACGGAGCATAGAGCACAACTC; chain 2 AAUGACGGAGCAUAGAGCACAACUC; Antisense strand given in DNA and RNA notation, chemistry not given here; one strand in two spellings)
Growth Inhibition in A549 cells by 10 nM siRNA (A549 cells): − (no growth inhibition) | mRNA knockdown of transporter gene target transcript, 0.1 nM [1]: ++ (70-90% mRNA knockdown) | mRNA knockdown of transporter gene target transcript, 1 nM [1]: ++ (70-90% mRNA knockdown)

SEQ ID NO: 4912: siRNA targeting SLC5A6 (SMVT1) (chain 1 ACCAGTGTCTGGAACACATCTGTCC; chain 2 ACCAGUGUCUGGAACACAUCUGUCC; Antisense strand given in DNA and RNA notation, chemistry not given here; one strand in two spellings)
Growth Inhibition in A549 cells by 10 nM siRNA (A549 cells): − (no growth inhibition) | mRNA knockdown of transporter gene target transcript, 0.1 nM [1]: + (50-70% mRNA knockdown) | mRNA knockdown of transporter gene target transcript, 1 nM [1]: + (50-70% mRNA knockdown)

SEQ ID NO: 4913: siRNA targeting SLC19A2 (ThTr1) (chain 1 AATACAAGGAGACGGTCTGGCTTGG; chain 2 AAUACAAGGAGACGGUCUGGCUUGG; Antisense strand given in DNA and RNA notation, chemistry not given here; one strand in two spellings)
Growth Inhibition in A549 cells by 10 nM siRNA (A549 cells): − (no growth inhibition) | mRNA knockdown of transporter gene target transcript, 0.1 nM [1]: ++ (70-90% mRNA knockdown) | mRNA knockdown of transporter gene target transcript, 1 nM [1]: ++ (70-90% mRNA knockdown)

SEQ ID NO: 4916: siRNA targeting SLC23A2 (SVCT2) (chain 1 AATACTAGGAATATTGTCAGCATGG; chain 2 AAUACUAGGAAUAUUGUCAGCAUGG; Antisense strand given in DNA and RNA notation, chemistry not given here; one strand in two spellings)
Growth Inhibition in A549 cells by 10 nM siRNA (A549 cells): − (no growth inhibition) | mRNA knockdown of transporter gene target transcript, 0.1 nM [1]: ++ (70-90% mRNA knockdown) | mRNA knockdown of transporter gene target transcript, 1 nM [1]: ++ (70-90% mRNA knockdown)

SEQ ID NO: 4917: siRNA targeting SLC23A2 (SVCT2) (chain 1 AACAGCTGTAACTTGTACGCAGTCC; chain 2 AACAGCUGUAACUUGUACGCAGUCC; Antisense strand given in DNA and RNA notation, chemistry not given here; one strand in two spellings)
Growth Inhibition in A549 cells by 10 nM siRNA (A549 cells): − (no growth inhibition) | mRNA knockdown of transporter gene target transcript, 0.1 nM [1]: ++ (70-90% mRNA knockdown) | mRNA knockdown of transporter gene target transcript, 1 nM [1]: ++ (70-90% mRNA knockdown)

SEQ ID NO: 4918: siRNA targeting SLC23A2 (SVCT2) (chain 1 AATCCAAGCACAAAGAGGTTCCGGG; chain 2 AAUCCAAGCACAAAGAGGUUCCGGG; Antisense strand given in DNA and RNA notation, chemistry not given here; one strand in two spellings)
Growth Inhibition in A549 cells by 10 nM siRNA (A549 cells): − (no growth inhibition) | mRNA knockdown of transporter gene target transcript, 0.1 nM [1]: ++ (70-90% mRNA knockdown) | mRNA knockdown of transporter gene target transcript, 1 nM [1]: ++ (70-90% mRNA knockdown)

SEQ ID NO: 4919: siRNA targeting SLC9A1 (NHE1) (chain 1 AAACTCCTCAAAGAGGTGATACAGG; chain 2 AAACUCCUCAAAGAGGUGAUACAGG; chemistry not given here; one strand in two spellings)
Growth Inhibition in A549 cells by 10 nM siRNA (A549 cells): + (inhibits by at least 50%) | mRNA knockdown of transporter gene target transcript, 0.1 nM [1]: ++ (70-90% mRNA knockdown) | mRNA knockdown of transporter gene target transcript, 1 nM [1]: ++ (70-90% mRNA knockdown)

SEQ ID NO: 4920: siRNA targeting SLC9A1 (NHE1) (chain 1 TCAGGTAGTTGTTGATCTTCTGCTC; chain 2 UCAGGUAGUUGUUGAUCUUCUGCUC; chemistry not given here; one strand in two spellings)
Growth Inhibition in A549 cells by 10 nM siRNA (A549 cells): − (no growth inhibition) | mRNA knockdown of transporter gene target transcript, 0.1 nM [1]: ++ (70-90% mRNA knockdown) | mRNA knockdown of transporter gene target transcript, 1 nM [1]: ++ (70-90% mRNA knockdown)

SEQ ID NO: 4921: siRNA targeting SLC9A1 (NHE1) (chain 1 ATCAGTGACGGAATGATTAACAGGG; chain 2 AUCAGUGACGGAAUGAUUAACAGGG; chemistry not given here; one strand in two spellings)
Growth Inhibition in A549 cells by 10 nM siRNA (A549 cells): − (no growth inhibition) | mRNA knockdown of transporter gene target transcript, 0.1 nM [1]: ++ (70-90% mRNA knockdown) | mRNA knockdown of transporter gene target transcript, 1 nM [1]: ++ (70-90% mRNA knockdown)

SEQ ID NO: 4922: siRNA targeting SLC16A1 (MCT1) (chain 1 ATAGGTAGTGGATAAAGGTGCTAGC; chain 2 AUAGGUAGUGGAUAAAGGUGCUAGC; chemistry not given here; one strand in two spellings)
Growth Inhibition in A549 cells by 10 nM siRNA (A549 cells): + (inhibits by at least 50%) | mRNA knockdown of transporter gene target transcript, 0.1 nM [1]: + (50-70% mRNA knockdown) | mRNA knockdown of transporter gene target transcript, 1 nM [1]: ++ (70-90% mRNA knockdown) | mRNA knockdown of transporter gene target transcript, 10 nM ([1]; 10 nM siRNA): +++ (>90% mRNA knockdown)

Reference: patent US20080145313A1, “Compositions and Methods for the Treatment and Prevention of Neoplastic Disorders” (Genesis Research & Development Corporation Limited, priority 2006, published 2008)
